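Step 1: Grow cells in 96-well plates. Step 2: Expose to compound for 48 hours at 5 concentrations. Step 3: Interpolate endpoints linearly; if unreached, use highest concentration. At the TGI there is no net growth.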 Where only a bound is given, the exact number is not on record here.

The first experiment relates to HOP-62 NSCLC. The experiment in a line: NCI-60 cell line screen, 48 h.
In turn, `Clc1cc(C(c2cc(Cl)sc2Cl)c2cc(Cl)sc2Cl)c(Cl)s1` showed a TGI above 100 µM.

`O=P(OCc1ccccc1)(OCc1ccccc1)C(O)/C=C/c1ccccc1` (stereo not given) gave a TGI of 55.5 µM.

Turning to `C[N+]1(CCN=C=NC2CCCCC2)CCOCC1`, the TGI was above 100 µM.

`Cc1cc(S(=O)(=O)Nc2n[nH]c(Nc3ccccc3)n2)c(SCC(=O)O)cc1Cl`: the TGI was above 100 µM.

Regarding `NCCN(CCN(C(=O)Nc1ccccc1)c1ccccc1)C(=O)Nc1ccccc1`, the TGI was 34.8 µM.

Compound `COc1cc2c3c(cc(Cl)nc3c1OC)C(=O)C(=O)N2` gave a TGI of 34.7 µM.

`CCCCCCCCCCCCOCCOCCOCCOCCOCCOCC(=O)NC(Cc1ccccc1)C(=O)Oc1ccc([N+](=O)[O-])cc1` (stereo not given) displayed a TGI above 100 µM.

`O=C1CS/C(=N/N=C/c2cn(Cc3ccc(Cl)cc3Cl)c3ccccc23)N1`: the TGI is above 100 µM.

The compound `O=C1CC(c2ccccc2Cl)C2(C(=O)NC(=O)NC2=O)C(c2ccccc2Cl)C1` (stereo not given) came in with a TGI above 100 µM.

With `Cc1cn(CCCCCOC(=O)NC(CCCNC(N)=O)C(=O)O)c(=O)[nH]c1=O` (stereo not given), the TGI was above 100 µM.

`O=C1N/N=C\c2ccc(cc2)OCc2cccc(n2)COc2ccc(cc2)/C=N\NC1=O` showed a TGI above 25 µM.

Turning to `CC1CCc2sc3nc4n(c(=O)c3c2C1)CC(C)S4` (stereo not given), the TGI was above 100 µM.

Regarding `Cc1cccc(NS(=O)(=O)c2ccc(N=Nc3c(O)c(C(=O)O)cc4ccccc34)cc2)n1`, the TGI was above 100 µM.

In turn, `O=C(OC12CC3CC(CC(C3)C1)C2)c1ccc(NCc2cc(O)ccc2O)cc1` came in with a TGI of 14.8 µM.

In turn, `C#CCOCC12C=CC(O1)C1COC(=O)C12` (stereo not given) registered a TGI above 100 µM.

`C=C(C)[C@H]1CC(=O)/C(C)=C\CC/C(C)=C/CC[C@@]2(C)O[C@@H]2C1` yielded a TGI above 100 µM.

The compound `CN(C)CCCNc1cc(O)c2c(c1O)C(=O)c1ccccc1C2=O` returned a TGI of 23.3 µM.

The compound `C[n+]1c(-c2ccc(NC(=O)c3ccc(C(=O)Nc4ccc(-c5cn6ccccc6[n+]5C)cc4)cc3)cc2)cn2ccccc21` registered a TGI above 100 µM.

In the next experiment the test system is HOP-92 NSCLC. Kind of experiment: NCI-60 cell line screen, 48 h.
Take `Clc1cc(C(c2cc(Cl)sc2Cl)c2cc(Cl)sc2Cl)c(Cl)s1`: the TGI was above 100 µM.

For the compound `O=P(OCc1ccccc1)(OCc1ccccc1)C(O)/C=C/c1ccccc1` (stereo not given), the TGI amounted to 57.2 µM.

The compound `C[N+]1(CCN=C=NC2CCCCC2)CCOCC1` showed a TGI above 100 µM.

`Cc1cc(S(=O)(=O)Nc2n[nH]c(Nc3ccccc3)n2)c(SCC(=O)O)cc1Cl` had a TGI above 100 µM.

As for `NCCN(CCN(C(=O)Nc1ccccc1)c1ccccc1)C(=O)Nc1ccccc1`, the TGI was 44.2 µM.

`COc1cc2c3c(cc(Cl)nc3c1OC)C(=O)C(=O)N2` came in with a TGI of 3.44 µM.

For `CCCCCCCCCCCCOCCOCCOCCOCCOCCOCC(=O)NC(Cc1ccccc1)C(=O)Oc1ccc([N+](=O)[O-])cc1` (stereo not given), the TGI was above 100 µM.

For the compound `O=C1CS/C(=N/N=C/c2cn(Cc3ccc(Cl)cc3Cl)c3ccccc23)N1`, the TGI was above 100 µM.

`O=C1CC(c2ccccc2Cl)C2(C(=O)NC(=O)NC2=O)C(c2ccccc2Cl)C1` (stereo not given) displayed a TGI above 100 µM.

`Cc1cn(CCCCCOC(=O)NC(CCCNC(N)=O)C(=O)O)c(=O)[nH]c1=O` (stereo not given) registered a TGI above 100 µM.

Regarding `O=C1N/N=C\c2ccc(cc2)OCc2cccc(n2)COc2ccc(cc2)/C=N\NC1=O`, the TGI is above 25 µM.

As to `CC1CCc2sc3nc4n(c(=O)c3c2C1)CC(C)S4` (stereo not given), the TGI is 64.9 µM.

`Cc1cccc(NS(=O)(=O)c2ccc(N=Nc3c(O)c(C(=O)O)cc4ccccc34)cc2)n1` registered a TGI above 100 µM.

On to `O=C(OC12CC3CC(CC(C3)C1)C2)c1ccc(NCc2cc(O)ccc2O)cc1`, for which the TGI was determined as 2.07 µM.

Turning to `C#CCOCC12C=CC(O1)C1COC(=O)C12` (stereo not given), the TGI is above 100 µM.

As for `C=C(C)[C@H]1CC(=O)/C(C)=C\CC/C(C)=C/CC[C@@]2(C)O[C@@H]2C1`, the TGI was above 100 µM.

The compound `CN(C)CCCNc1cc(O)c2c(c1O)C(=O)c1ccccc1C2=O` had a TGI of 29.6 µM.

The compound `C[n+]1c(-c2ccc(NC(=O)c3ccc(C(=O)Nc4ccc(-c5cn6ccccc6[n+]5C)cc4)cc3)cc2)cn2ccccc21` showed a TGI above 100 µM.

A further experiment has as its system HT29 colon. The experiment in a line: NCI-60 cell line screen, 48 h.
Consider `Clc1cc(C(c2cc(Cl)sc2Cl)c2cc(Cl)sc2Cl)c(Cl)s1`, for which the TGI is above 100 µM.

The compound `O=P(OCc1ccccc1)(OCc1ccccc1)C(O)/C=C/c1ccccc1` (stereo not given) showed a TGI of 45.4 µM.

For the compound `C[N+]1(CCN=C=NC2CCCCC2)CCOCC1`, the TGI was above 100 µM.

In the case of `Cc1cc(S(=O)(=O)Nc2n[nH]c(Nc3ccccc3)n2)c(SCC(=O)O)cc1Cl`, the TGI is above 100 µM.

The compound `NCCN(CCN(C(=O)Nc1ccccc1)c1ccccc1)C(=O)Nc1ccccc1` gave a TGI above 100 µM.

The compound `COc1cc2c3c(cc(Cl)nc3c1OC)C(=O)C(=O)N2` yielded a TGI of 41.4 µM.

Consider `CCCCCCCCCCCCOCCOCCOCCOCCOCCOCC(=O)NC(Cc1ccccc1)C(=O)Oc1ccc([N+](=O)[O-])cc1` (stereo not given), for which the TGI is above 100 µM.

`O=C1CS/C(=N/N=C/c2cn(Cc3ccc(Cl)cc3Cl)c3ccccc23)N1` displayed a TGI above 100 µM.

`O=C1CC(c2ccccc2Cl)C2(C(=O)NC(=O)NC2=O)C(c2ccccc2Cl)C1` (stereo not given) displayed a TGI above 100 µM.

`Cc1cn(CCCCCOC(=O)NC(CCCNC(N)=O)C(=O)O)c(=O)[nH]c1=O` (stereo not given) came in with a TGI above 100 µM.

For `O=C1N/N=C\c2ccc(cc2)OCc2cccc(n2)COc2ccc(cc2)/C=N\NC1=O`, the TGI was above 25 µM.

The compound `CC1CCc2sc3nc4n(c(=O)c3c2C1)CC(C)S4` (stereo not given) had a TGI of 33.4 µM.

The compound `Cc1cccc(NS(=O)(=O)c2ccc(N=Nc3c(O)c(C(=O)O)cc4ccccc34)cc2)n1` had a TGI above 100 µM.

In turn, `O=C(OC12CC3CC(CC(C3)C1)C2)c1ccc(NCc2cc(O)ccc2O)cc1` came in with a TGI of 9.73 µM.

Compound `C#CCOCC12C=CC(O1)C1COC(=O)C12` (stereo not given) came in with a TGI above 100 µM.

`C=C(C)[C@H]1CC(=O)/C(C)=C\CC/C(C)=C/CC[C@@]2(C)O[C@@H]2C1` returned a TGI of 33.7 µM.

Turning to `CN(C)CCCNc1cc(O)c2c(c1O)C(=O)c1ccccc1C2=O`, the TGI amounted to 24 µM.

`C[n+]1c(-c2ccc(NC(=O)c3ccc(C(=O)Nc4ccc(-c5cn6ccccc6[n+]5C)cc4)cc3)cc2)cn2ccccc21` came in with a TGI above 100 µM.

Another experiment relates to K-562 leukemia. The experiment in a line: NCI-60 cell line screen, 48 h.
With `Clc1cc(C(c2cc(Cl)sc2Cl)c2cc(Cl)sc2Cl)c(Cl)s1`, the TGI is above 100 µM.

On to `O=P(OCc1ccccc1)(OCc1ccccc1)C(O)/C=C/c1ccccc1` (stereo not given), for which the TGI is above 100 µM.

Regarding `C[N+]1(CCN=C=NC2CCCCC2)CCOCC1`, the TGI was above 100 µM.

For the compound `Cc1cc(S(=O)(=O)Nc2n[nH]c(Nc3ccccc3)n2)c(SCC(=O)O)cc1Cl`, the TGI was above 100 µM.

For the compound `NCCN(CCN(C(=O)Nc1ccccc1)c1ccccc1)C(=O)Nc1ccccc1`, the TGI was above 100 µM.

`COc1cc2c3c(cc(Cl)nc3c1OC)C(=O)C(=O)N2` came in with a TGI above 100 µM.

`CCCCCCCCCCCCOCCOCCOCCOCCOCCOCC(=O)NC(Cc1ccccc1)C(=O)Oc1ccc([N+](=O)[O-])cc1` (stereo not given) registered a TGI above 100 µM.

`O=C1CS/C(=N/N=C/c2cn(Cc3ccc(Cl)cc3Cl)c3ccccc23)N1`: the TGI was above 100 µM.

`O=C1CC(c2ccccc2Cl)C2(C(=O)NC(=O)NC2=O)C(c2ccccc2Cl)C1` (stereo not given) registered a TGI above 100 µM.

For `Cc1cn(CCCCCOC(=O)NC(CCCNC(N)=O)C(=O)O)c(=O)[nH]c1=O` (stereo not given), the TGI was above 100 µM.

Consider `O=C1N/N=C\c2ccc(cc2)OCc2cccc(n2)COc2ccc(cc2)/C=N\NC1=O`, for which the TGI is above 25 µM.

With `CC1CCc2sc3nc4n(c(=O)c3c2C1)CC(C)S4` (stereo not given), the TGI was above 100 µM.

In the case of `Cc1cccc(NS(=O)(=O)c2ccc(N=Nc3c(O)c(C(=O)O)cc4ccccc34)cc2)n1`, the TGI was above 100 µM.

`O=C(OC12CC3CC(CC(C3)C1)C2)c1ccc(NCc2cc(O)ccc2O)cc1` showed a TGI of 2.38 µM.

The compound `C#CCOCC12C=CC(O1)C1COC(=O)C12` (stereo not given) came in with a TGI above 100 µM.

In turn, `C=C(C)[C@H]1CC(=O)/C(C)=C\CC/C(C)=C/CC[C@@]2(C)O[C@@H]2C1` showed a TGI above 100 µM.

The compound `CN(C)CCCNc1cc(O)c2c(c1O)C(=O)c1ccccc1C2=O` came in with a TGI of 21.6 µM.

Consider `C[n+]1c(-c2ccc(NC(=O)c3ccc(C(=O)Nc4ccc(-c5cn6ccccc6[n+]5C)cc4)cc3)cc2)cn2ccccc21`, for which the TGI is above 100 µM.

Another experiment concerns NCI-H23 lung. The experiment in a line: NCI-60 cell line screen, 48 h.
`Clc1cc(C(c2cc(Cl)sc2Cl)c2cc(Cl)sc2Cl)c(Cl)s1` came in with a TGI above 100 µM.

As for `O=P(OCc1ccccc1)(OCc1ccccc1)C(O)/C=C/c1ccccc1` (stereo not given), the TGI is 44.6 µM.

Turning to `C[N+]1(CCN=C=NC2CCCCC2)CCOCC1`, the TGI was above 100 µM.

Compound `Cc1cc(S(=O)(=O)Nc2n[nH]c(Nc3ccccc3)n2)c(SCC(=O)O)cc1Cl` came in with a TGI above 100 µM.

As for `NCCN(CCN(C(=O)Nc1ccccc1)c1ccccc1)C(=O)Nc1ccccc1`, the TGI worked out at 63 µM.

Turning to `COc1cc2c3c(cc(Cl)nc3c1OC)C(=O)C(=O)N2`, the TGI is 34.1 µM.

Turning to `CCCCCCCCCCCCOCCOCCOCCOCCOCCOCC(=O)NC(Cc1ccccc1)C(=O)Oc1ccc([N+](=O)[O-])cc1` (stereo not given), the TGI was above 100 µM.

Turning to `O=C1CS/C(=N/N=C/c2cn(Cc3ccc(Cl)cc3Cl)c3ccccc23)N1`, the TGI is above 100 µM.

`O=C1CC(c2ccccc2Cl)C2(C(=O)NC(=O)NC2=O)C(c2ccccc2Cl)C1` (stereo not given) yielded a TGI above 100 µM.

For `Cc1cn(CCCCCOC(=O)NC(CCCNC(N)=O)C(=O)O)c(=O)[nH]c1=O` (stereo not given), the TGI was above 100 µM.

In turn, `O=C1N/N=C\c2ccc(cc2)OCc2cccc(n2)COc2ccc(cc2)/C=N\NC1=O` returned a TGI above 25 µM.

`CC1CCc2sc3nc4n(c(=O)c3c2C1)CC(C)S4` (stereo not given) had a TGI above 100 µM.

Turning to `Cc1cccc(NS(=O)(=O)c2ccc(N=Nc3c(O)c(C(=O)O)cc4ccccc34)cc2)n1`, the TGI is above 100 µM.

Consider `O=C(OC12CC3CC(CC(C3)C1)C2)c1ccc(NCc2cc(O)ccc2O)cc1`, for which the TGI was found to be 3.8 µM.

Regarding `C#CCOCC12C=CC(O1)C1COC(=O)C12` (stereo not given), the TGI is above 100 µM.

Consider `C=C(C)[C@H]1CC(=O)/C(C)=C\CC/C(C)=C/CC[C@@]2(C)O[C@@H]2C1`, for which the TGI is 51.8 µM.

Turning to `CN(C)CCCNc1cc(O)c2c(c1O)C(=O)c1ccccc1C2=O`, the TGI was 27.9 µM.

The compound `C[n+]1c(-c2ccc(NC(=O)c3ccc(C(=O)Nc4ccc(-c5cn6ccccc6[n+]5C)cc4)cc3)cc2)cn2ccccc21` came in with a TGI above 100 µM.

(Values after PubChem BioAssay (NCI).)
